Results published in the supplement of paper PMC10307832.

How the values were obtained:
Experiment in all cases: relative viability (nuclei count vs DMSO), 5 days (fraction); higher = more cells survive
Ibrutinib + Tozasertib = compound: C=CC(=O)N1CCC[C@@H](n2nc(-c3ccc(Oc4ccccc4)cc3)c3c(N)ncnc32)C1 [Ibrutinib] + Cc1cc(Nc2cc(N3CCN(C)CC3)nc(Sc3ccc(NC(=O)C4CC4)cc3)n2)n[nH]1 [Tozasertib] (partner 0.1 µM)
Outline: (§1)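 Dosing by pin tool came one day after lung cancer cell lines were seeded in 1536-well plates, using either one drug or a fixed anchor-drug dose plus five library-drug doses (not always all listed) in √10 steps. After 5 days, nuclei were counted on 4× images. Relative viability is treated-well nuclei count divided by vehicle-well nuclei count, and values are medians of duplicate plates.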

PAC-1 + Navitoclax = compound: C=CCc1cccc(/C=N/NC(=O)CN2CCN(Cc3ccccc3)CC2)c1O [PAC-1] + CC1(C)CCC(c2ccc(Cl)cc2)=C(CN2CCN(c3ccc(C(=O)NS(=O)(=O)c4ccc(N[C@H](CCN5CCOCC5)CSc5ccccc5)c(S(=O)(=O)C(F)(F)F)c4)cc3)CC2)C1 [Navitoclax] (partner 0.5 µM)
Outline: as §1

PAC-1 + Linsitinib = compound: C=CCc1cccc(/C=N/NC(=O)CN2CCN(Cc3ccccc3)CC2)c1O [PAC-1] + C[C@]1(O)C[C@@H](c2nc(-c3ccc4ccc(-c5ccccc5)nc4c3)c3c(N)nccn32)C1 [Linsitinib] (partner 1 µM)
Outline: as §1

PAC-1 + Decitabine = compound: C=CCc1cccc(/C=N/NC(=O)CN2CCN(Cc3ccccc3)CC2)c1O [PAC-1] + Nc1ncn([C@H]2C[C@H](O)[C@@H](CO)O2)c(=O)n1 [Decitabine] (partner 2 µM)
Outline: as §1

Cell Line	relative viability (Ibrutinib + Tozasertib; first compound 0.005 µM)	relative viability (Ibrutinib + Tozasertib; first compound 0.01581 µM)	relative viability (Ibrutinib + Tozasertib; first compound 0.05 µM)	relative viability (Ibrutinib + Tozasertib; first compound 0.1581 µM)	relative viability (Ibrutinib + Tozasertib; first compound 0.5 µM)	relative viability (PAC-1 + Navitoclax; first compound 0.02 µM)	relative viability (PAC-1 + Navitoclax; first compound 0.06325 µM)	relative viability (PAC-1 + Navitoclax; first compound 0.2 µM)	relative viability (PAC-1 + Navitoclax; first compound 2 µM)	relative viability (PAC-1 + Linsitinib; first compound 0.02 µM)	relative viability (PAC-1 + Linsitinib; first compound 0.06325 µM)	relative viability (PAC-1 + Linsitinib; first compound 0.2 µM)	relative viability (PAC-1 + Linsitinib; first compound 2 µM)	relative viability (PAC-1 + Decitabine; first compound 0.02 µM)	relative viability (PAC-1 + Decitabine; first compound 0.06325 µM)	relative viability (PAC-1 + Decitabine; first compound 0.2 µM)	relative viability (PAC-1 + Decitabine; first compound 2 µM)
NCI-H441	0.596	0.64	0.801	0.73	0.809	0.435	0.645	0.587	0.56	0.519	0.571	0.496	0.564	0.256	0.258	0.171	0.23
NCI-H460	0.716	0.321	0.519	0.409	0.494	1.1	1.14	0.922	1.09	0.701	0.81	0.78	0.405	0.436	0.424	0.242	0.451
NCI-H520	0.428	0.341	0.427	0.381	0.39	1.11	1.02	1.04	1.12	0.944	0.92	1	0.861	0.465	0.513	0.328	0.548
NCI-H596		0.922	0.858	0.943	0.722	0.887	0.932	0.951	0.951	0.891	0.977	1.08	1.03	0.915	1	0.93	0.942
NCI-H647		0.298	0.39	0.347	0.174	1.23	1.09	1.16	1.2	1.05	1.19	1.2	0.807	0.358	0.403	0.328	0.321
NCI-H727	0.542	0.578	0.624		0.533	0.425	0.452	0.352	0.42	0.281	0.283	0.272	0.317	0.982	0.809	0.772	0.98
NCI-H838	0.261	0.261	0.285	0.27	0.277	1.08	1.12	1.08	1.21	1.02	0.982	0.925	1.15	0.425	0.45	0.462	0.445
NCI-H1355	0.601	0.518	0.517	0.62	0.491	0.866	0.961	0.965	0.962	0.74	0.89	0.806	0.803	0.32	0.363	0.335	0.373
NCI-H1395	0.77	0.688	0.782	0.74	0.776	1.21	1.16	1.32	1.32	1.02	1.15	0.842	0.958	0.741	0.685	0.632	0.712
NCI-H1437	0.437	0.373	0.472	0.403	0.391	1.04	1.12	1.01	0.775	0.986	1.02	0.911	0.71	0.568	0.587	0.583	0.537
NCI-H1651	0.558	0.7	0.757	0.668	0.944	0.924	1.12	1.06	1.09	0.823	0.933	0.992	1.12	0.649	0.552	0.39	0.675
NCI-H1666	0.628	0.59	0.602	0.583	0.536	1.14	0.915	0.933	1.04	0.986	0.789	0.983	0.891	0.721	0.763	0.713	0.713
NCI-H1734	0.272	0.245	0.299	0.257	0.257	0.826	0.832	0.813	0.881	0.845	0.885	0.928	1.02	0.52	0.554	0.37	0.462
NCI-H1755	0.628	0.574	0.695	0.613	0.528	0.959	0.954	0.986	0.989	1.01	1	0.94	0.982	0.764	0.712	0.675	0.732
NCI-H1793		0.288	0.254	0.462	0.208	0.453	0.46	0.535	0.461	0.728	1.01	1.21	0.96	0.48	0.589	0.396	0.542
NCI-H1915	0.498	0.439	0.447	0.485	0.428	0.449	0.794	0.751	0.767	1.09	1.09	1.02	1.07	0.266	0.253	0.245	0.27
NCI-H1944	0.247	0.217	0.21	0.24	0.198	1.03	1.04	0.954	1.04	1.17	1.05	1.12	1.06	0.435	0.459	0.466	0.456

Cell Line	relative viability (Ibrutinib + Tozasertib; first compound 0.005 µM)	relative viability (Ibrutinib + Tozasertib; first compound 0.01581 µM)	relative viability (Ibrutinib + Tozasertib; first compound 0.05 µM)	relative viability (Ibrutinib + Tozasertib; first compound 0.1581 µM)	relative viability (Ibrutinib + Tozasertib; first compound 0.5 µM)	relative viability (PAC-1 + Navitoclax; first compound 0.02 µM)	relative viability (PAC-1 + Navitoclax; first compound 0.06325 µM)	relative viability (PAC-1 + Navitoclax; first compound 0.2 µM)	relative viability (PAC-1 + Navitoclax; first compound 2 µM)	relative viability (PAC-1 + Linsitinib; first compound 0.02 µM)	relative viability (PAC-1 + Linsitinib; first compound 0.06325 µM)	relative viability (PAC-1 + Linsitinib; first compound 0.2 µM)	relative viability (PAC-1 + Linsitinib; first compound 2 µM)	relative viability (PAC-1 + Decitabine; first compound 0.02 µM)	relative viability (PAC-1 + Decitabine; first compound 0.06325 µM)	relative viability (PAC-1 + Decitabine; first compound 0.2 µM)	relative viability (PAC-1 + Decitabine; first compound 2 µM)
NCI-H1975	0.82	0.688	0.695	0.806	0.403	1.12	1.2	1.12	1.06	0.917	0.908	0.921	0.894	0.413	0.408	0.333	0.388
NCI-H1993	0.594	0.529	0.541	0.566	0.524	0.85	0.814	0.837	0.95	0.735	0.797	0.745	0.701	0.737	0.58	0.595	0.541
NCI-H2009	0.737	0.778	0.77	0.788	0.831	1.16	1.18	1.22	1.16	1.16	1.21	1.17	1.15	0.377	0.339	0.316	0.354
NCI-H2023	0.388	0.303	0.324	0.394	0.324	0.981	0.963	0.953	1.02	0.642	0.615	0.512	0.876	0.216	0.217	0.182	0.182
NCI-H2085	0.853	0.628	0.623	0.855	0.697	1.1	1.08	1.12	1.16	0.891	0.936	0.943	1.04	0.554	0.504	0.572	0.492
NCI-H2087	0.303	0.206	0.262		0.233	1.15	0.991	0.965	0.998	1.18	0.931	0.899	0.875	0.303	0.305	0.233	0.28
NCI-H2126	0.701	0.811	0.792	0.818	0.755	0.884	0.886	0.87	0.854	0.696	0.703	0.692	0.694	0.589	0.584	0.541	0.612
NCI-H2347		0.643	0.739	0.532	0.548	0.817	0.871	0.698	0.865	0.97	1.02	0.894	0.986	0.637	0.598	0.606	0.621
NCI-H2405	0.85	0.739	0.798	0.75	0.717	0.891	0.969	0.855	1.08	0.949	0.918	0.899	1.08	0.759	0.821	0.707	0.765
NCI-H3122	0.507	0.395	0.343	0.415	0.46	0.975	1.02	1.01	0.993	1.03	1.01	0.992	1.03	0.489	0.455	0.362	0.446
PC-3 [JPC-3]	0.872	0.772	0.873	0.99	0.681	0.894	0.817	0.708	0.844	1.04	0.965	0.948	0.97	0.938	0.861	0.698	0.77
PC-14	0.646	0.536	0.568	0.556	0.452	0.968	0.975	0.959	1.03	0.967	1.03	0.91	0.925	0.214	0.235	0.172	0.221
RERF-LC-KJ	0.59	0.5	0.467	0.537	0.544	0.859	0.932	1.11	0.733	0.904	0.818	0.861	0.887	0.66	0.65	0.66	0.661
SK-LU-1	0.363	0.252	0.399	0.347	0.33	0.803	0.892	0.733	0.888	1.17	1.06	1.04	0.716	0.651	0.627	0.293	0.654
SW 1573	0.189	0.169	0.195	0.174	0.184	0.825	1.03	0.825	1.03	0.826	0.76	0.759	0.914	0.532	0.551	0.432	0.564
UMC-11	0.194	0.203	0.203	0.203	0.188	0.334	0.311	0.308	0.318	0.997	1.03	0.996	1.04	0.668	0.681	0.265	0.68
